Laboratory results taken from patent US12678478B2, “Compositions and methods for treating dysregulated wound healing” (The Regents of the University of California, priority 2020, dated 2026).

Legend:
[1] = system: Col5a1CKO cardiac fibroblasts; test: Myofibroblast gene expression (qPCR) in Col5a1CKO cardiac fibroblasts generated ex vivo with or without cilengitide; format: cell-based, mouse; settings: Cilengitide 1 μM, 7 days, Col5a1 floxed cardiac fibroblasts infected with lentiviral Cre, versus no cilengitide (FIG. 8F)
Experimental: For qPCR, and RNA-seq, the injured and uninjured regions of the heart were harvested at different time points following injury, RNA extracted using RNeasy Mini kit (Qiagen). cDNAs were generated using iScript cDNA Synthesis Kit (BioRad) and qPCR performed.
Cardiac fibroblasts were isolated from Col5a1 fl/fl mouse as described above. These cells were infected with Lentivirus-Large T antigen in presence of polybrene (8 μg/ml) for 16 h, treated with puromycin (2 μg/ml) for selection of infected cells. Immortalized cells were cultured with 10% FBS containing high glucose DMEM. Cells so immortalized were then infected with Lentivirus-Cre recombinase or lentivirus-GFP to generate Col5a1 deficient cardiac fibroblast or control cardiac fibroblast, respectively. These cells were cultured for 6-7 days and used for each experiment to determine effects on gene expression. To determine an effect of Cilengitide on these cells, Col5a1fl/fl cardiac fibroblasts were pretreated with Cilengitide (1 μM) in 10% FBS containing high glucose DMEM for 1 h before infection with lentivirus-Cre recombinase or lentivirus-GFP. […]
Given the upregulation of αvβ3 and αvβ5 integrins in Col5a1CKO cardiac fibroblasts, whether there was a causal relationship between these differentially expressed integrins and myofibroblast differentiation was determined. […]

[2] = system: Col5a1CKO animals; test: Acute ischemic cardiac injury (LAD ligation) in Col5a1CKO animals treated with cilengitide; format: in vivo, mouse
[3] = system: control (Cre(−)Col5a1fl/fl) littermate animals; test: Acute ischemic cardiac injury (LAD ligation) in control littermates treated with cilengitide; format: in vivo, mouse
Experimental: All animal studies were approved by the Animal Research Committee, University of California, Los Angeles, Myocardial infarction was performed by ligating the left anterior descending (LAD) coronary artery following open thoracotomy. Briefly, Mice were anesthetized with ketamine (80 mg/kg)/xylazine (20 mg/kg) by intraperitoneal injection. Respiration was provided by mechanical ventilation with 95% 02 (tidal volume 0.5 ml, 130 breaths/min). The LAD coronary artery was ligated intramurally 2 mm from its origin with a 9-0 proline suture.
For experiments related to use of cilengitide, 20 mg/kg of Cilengitide diluted in PBS was administered by intraperitoneal injection every day until harvest and PBS was used as vehicle as a control.
For echocardiography, animals were continuously anesthetized with 1.5% isoflurane and 95% O2, Vevo2100 imaging system and a […] scan head (Toronto, Canada) were used to acquire short/long axis B-mode and M-mode images. Long axis B-mode view was used for analyzing peak longitudinal strain rate. […]
For Masson Trichrome staining, sections were stained using Masson Trichrome Stain kit (Thermo Scientific, 87019). Images were taken in heart sections from apex, mid-ventricle, and close to suture and fibrotic area analyzed from apex to mid-ventricle. Scar tissue area was calculated as the fraction of left ventricular surface area occupied by the scar tissue. […]

CC(C)[C@H]1C(=O)N[C@@H](CCCN=C(N)N)C(=O)NCC(=O)N[C@@H](CC(=O)O)C(=O)N[C@H](Cc2ccccc2)C(=O)N1C [cilengitide, Cilengitide]
expression of myofibroblast markers [1]: significantly reduced | fraction of animals exhibiting severe fibrosis ([2]; 20 mg/kg daily for 14 days, 2 weeks post injury, severe = >50% fibrotic area (FIG. 8L)): 22% | degree of myocyte hypertrophy in the border zone (heart weight/body weight ratios and histological analysis) ([2]; 20 mg/kg daily for 14 days, 2 weeks post injury, versus vehicle-injected group, p<0.05 (FIGS. 8N, 8O)): substantially reduced | Scar size expressed as a fraction of left ventricular surface area ([2]; 20 mg/kg daily for 14 days, Masson trichrome, 2 weeks post injury, mean±S.D., n=9, p<0.05 versus Col5a1CKO+vehicle (FIGS. 8J, 8K)): 41.2±16.1% | post injury cardiac function (EF, FS by echocardiography) ([2]; 20 mg/kg daily intraperitoneal for 14 days from day of injury, 1 and 2 weeks after injury, versus vehicle-injected Col5a1CKO (FIGS. 8H, 8I)): complete rescue of function | number of myofibroblasts (αSMA+vimentin+cells/vimentin+cells) in scars ([2]; 2 weeks of cilengitide injection, 20 mg/kg daily, versus vehicle-injected group, p<0.05 (FIG. 8M)): significantly reduced | post injury cardiac function (EF, FS by echocardiography) ([3]; 20 mg/kg daily for 14 days from day of injury, control littermates (FIG. 8H)): did not affect | scar size ([3]; 20 mg/kg daily for 14 days, control animals, 2 weeks post injury (FIGS. 8J, 8K)): did not affect
